Patent US10619138B2, “Herbicide-resistant hydroxyphenylpyruvate dioxygenases” (BASF SE, priority 2013, dated 2020)

Legend:
[1] = target: T1, Arabidopsis HPPD (SEQ ID NO: 42) (Arabidopsis thaliana, UniProt P93836); assay: In vitro HPPD activity assay (HGA by HPLC), wildtype enzyme characterization; assay type: biochemical; settings: for TI (normalized tolerance index): normalized on Arabidopsis wild-type HPPD, reference enzyme
T1 construct: Arabidopsis (42); His tag; made in house; host or cells: E. coli BL21 (DE3)
T1 sequence (P93836 1-445): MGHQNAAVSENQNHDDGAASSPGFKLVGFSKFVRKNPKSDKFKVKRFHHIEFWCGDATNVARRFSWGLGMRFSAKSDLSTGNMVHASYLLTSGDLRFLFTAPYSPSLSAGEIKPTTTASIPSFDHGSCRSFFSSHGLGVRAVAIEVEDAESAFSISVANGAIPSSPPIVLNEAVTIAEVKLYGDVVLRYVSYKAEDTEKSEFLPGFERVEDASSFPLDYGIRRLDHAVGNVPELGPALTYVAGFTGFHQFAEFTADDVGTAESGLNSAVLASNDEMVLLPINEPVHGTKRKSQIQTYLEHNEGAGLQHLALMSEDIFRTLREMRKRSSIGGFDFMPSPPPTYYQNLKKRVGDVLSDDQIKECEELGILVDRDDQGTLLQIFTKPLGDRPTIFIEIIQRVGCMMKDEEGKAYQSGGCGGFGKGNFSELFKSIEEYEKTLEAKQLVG
Method: (§1) The activity assay for HPPD is based on the analysis of homogentisic acid by reversed phase HPLC.
(§2) The assay mixture can contain 150 mM potassium phosphate buffer pH 7.0, 50 mM L-ascorbic acid, 100 μM Catalase (Sigma-Aldrich), 1 μM FeSO4 and 0.2 units of purified HPPD enzyme in a total volume of 505 μl. 1 unit is defined as the amount of enzyme that is required to produce 1 nmol of HGA per minute at 20° C.
(§3) The reaction is allowed to proceed for 45 min at room temperature. The reaction is stopped by the addition of 50 μl of 4.5 M phosphoric acid. The sample is filtered using a […] pore size PVDF filtration device.
(§4) 5 μl of the cleared sample is analyzed on an UPLC HSS T3 column (particle size 1.8 μm, dimensions 2.1×50 mm; Waters) by isocratic elution using 90% 20 mM NaH2PO4 pH 2.2, 10% methanol (v/v).
(§5) HGA is detected electrochemically at 750 mV (mode: DC; polarity: positive) and quantified by integrating peak areas (Empower software; Waters).
Inhibitors are dissolved in DMSO (dimethylsulfoxide) to a concentration of 0.5 mM. From this stock solution serial five-fold dilutions are prepared in DMSO, which are used in the assay. The respective inhibitor solution accounts for 1% of the assay volume. […] Activities are normalized by setting the uninhibited enzyme activity to 100%. IC50 values are calculated using non-linear regression.
(§6) Using methods which are described in the above examples or well known in the art, purified, recombinant wildtype HPPD enzymes are characterized with respect to their kinetic properties and sensitivity towards HPPD inhibiting herbicides. Apparent michaelis constants (Km) and maximal reaction velocities (Vmax) are calculated by non-linear regression with the software GraphPad Prism 5 (GraphPad Software, La Jolla, USA) using a substrate inhibition model. […] Weighted means (by standard error) of Km and IC50 values are calculated from at least three independent experiments.
(§7) Field performance of the HPPD enzyme, which is used as a herbicide tolerance trait may depend not only on its lack of sensitivity towards HPPD inhibiting herbicides but also on its activity. To assess the potential performance of a herbicide tolerance trait a tolerance index (TI) is calculated using the following formula: […]
(§8) Easy comparison and ranking of each trait is enabled by normalizing tolerance indexes on Arabidopsis wild-type HPPD.

[2] = tested on: Mucilaginibacter HPPD (SEQ ID NO: 28); assay: In vitro HPPD activity assay, tolerance index; assay type: biochemical, Mucilaginibacter paludis; settings: normalized on Arabidopsis wild-type HPPD
Method: as §1, §2, §3, §4, §5
Inhibitors are dissolved in DMSO (dimethylsulfoxide) to a concentration of 0.5 mM. From this stock solution serial five-fold dilutions are prepared in DMSO, which are used in the assay. The respective inhibitor solution accounts for 1% of the assay volume. Thus, final inhibitor concentrations range from 5 μM to 320 pM, respectively. Activities are normalized by setting the uninhibited enzyme activity to 100%. IC50 values are calculated using non-linear regression.
as §6, with “experiments. The Cheng-Prusoff equation for competitive inhibition (Cheng, Y. C.; Prusoff, W. H. Biochem Pharmacol 1973, 22, 3099-3108) is used to calculate dissociation constants (Ki).” for “experiments.”
as §7, §8

[3] = tested on: untransformed wild-type (WT) Arabidopsis plants; assay: Greenhouse herbicide spray test, wild-type plants; assay type: in vivo, Arabidopsis thaliana; settings: two weeks after treatment, mean of three plants
Text: (§9) Additionally, T1 and T2 transgenic Arabidopsis plants can be tested for improved tolerance to HPPD-inhibiting herbicides in greenhouse studies. Herbicide injury scoring is done 2-3 weeks after treatment and is rated on a scale of 0 to 100%, 0% being no injury and 100% being complete death.
(§10) Transgenic Arabidopsis plants were sprayed with a range of doses from 1.56-50 g/ha with HPPD-inhibiting herbicides and injury evaluations were taken two weeks after treatment. […] As depicted in Table 6, control plants are severely injured by all doses of herbicide applied, with at least 70% of leaf material being damaged at the lowest application rate. For example, transgenic plants expressing Scenedesmus HPPD have an excellent tolerance to all herbidcides tested. […] After application of Inhibitor 2, only 18% of leaf material was damaged resulting in a 5-fold tolerance compared to the WT at the highest application rate.

[4] = tested on: transgenic Arabidopsis plants expressing Acidobacterium HPPD; assay: Greenhouse herbicide spray test, transgenic plants (T2); assay type: in vivo, Arabidopsis thaliana; settings: for Injury evaluation, scale 0-100% / tolerance of transgenic plants (in words): two weeks after treatment; for tolerance of transgenic plants (in words): doses 1.56-50 g/ha
Text: as §9, §10

[5] = tested on: transgenic Arabidopsis plants expressing Algoriphagus HPPD; assay: as above; assay type: in vivo, Arabidopsis thaliana; settings: two weeks after treatment
Text: as §9, §10

[6] = tested on: transgenic Arabidopsis plants expressing Scenedesmus HPPD; assay: as above; assay type: in vivo, Arabidopsis thaliana; settings: for Injury evaluation, scale 0-100% / tolerance of transgenic plants (in words): two weeks after treatment; for tolerance of transgenic plants (in words): doses 1.56-50 g/ha
Text: as §9, §10

CS(=O)(=O)c1ccc(C(=O)C2C(=O)CCCC2=O)c([N+](=O)[O-])c1 [Inhibitor 2, 2-(4-methylsulfonyl-2-nitro-benzoyl)cyclohexane-1,3-dione]
TI (normalized tolerance index) [1]: 1 | TI (normalized tolerance index) [2]: 0.6 | Injury evaluation, scale 0-100% ([3]; 1.56 g/ha): 83% | Injury evaluation, scale 0-100% ([3]; 3.125 g/ha): 93% | Injury evaluation, scale 0-100% ([3]; 6.25 g/ha): 93% | Injury evaluation, scale 0-100% ([4]; Acidobacterium HPPD Event 1, 1.56 g/ha): 8% | Injury evaluation, scale 0-100% ([4]; Acidobacterium HPPD Event 1, 3.125 g/ha): 8% | Injury evaluation, scale 0-100% ([4]; Acidobacterium HPPD Event 1, 6.25 g/ha): 45% | Injury evaluation, scale 0-100% ([4]; Acidobacterium HPPD Event 2, 1.56 g/ha): 10% | Injury evaluation, scale 0-100% ([4]; Acidobacterium HPPD Event 2, 3.125 g/ha): 33% | Injury evaluation, scale 0-100% ([4]; Acidobacterium HPPD Event 2, 6.25 g/ha): 55% | leaf damage ([4]; at the lowest application rate, both events): 8-10% | tolerance of transgenic plants (in words) [4]: significantly increased tolerance | Injury evaluation, scale 0-100% ([5]; Algoriphagus HPPD Event 1, 1.56 g/ha): 48% | Injury evaluation, scale 0-100% ([5]; Algoriphagus HPPD Event 1, 3.125 g/ha): 53% | Injury evaluation, scale 0-100% ([5]; Algoriphagus HPPD Event 1, 6.25 g/ha): 65% | Injury evaluation, scale 0-100% ([5]; Algoriphagus HPPD Event 2, 1.56 g/ha): 45% | Injury evaluation, scale 0-100% ([5]; Algoriphagus HPPD Event 2, 3.125 g/ha): 60% | Injury evaluation, scale 0-100% ([5]; Algoriphagus HPPD Event 2, 6.25 g/ha): 75% | Injury evaluation, scale 0-100% ([6]; Scenedesmus HPPD Event 1, 1.56 g/ha): 10% | Injury evaluation, scale 0-100% ([6]; Scenedesmus HPPD Event 1, 3.125 g/ha): 13% | Injury evaluation, scale 0-100% ([6]; Scenedesmus HPPD Event 1, 6.25 g/ha): 18% | Injury evaluation, scale 0-100% ([6]; Scenedesmus HPPD Event 2, 1.56 g/ha): 23% | Injury evaluation, scale 0-100% ([6]; Scenedesmus HPPD Event 2, 3.125 g/ha): 38% | Injury evaluation, scale 0-100% ([6]; Scenedesmus HPPD Event 2, 6.25 g/ha): 38% | tolerance compared to the WT ([6]; at the highest application rate): 5 fold | tolerance of transgenic plants (in words) [6]: outstanding tolerance

CN(c1c(Cl)ccc(C2=C(O)c3ncccc3C(C)(C)S2(=O)=O)c1Cl)S(C)(=O)=O [Inhibitor 4, N-[2,6-dichloro-3-(8-hydroxy-5,5-dimethyl-6,6-dioxo-thiopyrano[4,3-b]pyridin-7-yl)phenyl]-N-methyl-methanesulfonamide]
Ki [1]: 29 nM | TI (normalized tolerance index) [1]: 1 | TI (tolerance index) ([1]; not normalized): 23.8E−3 | TI (normalized tolerance index) [2]: 13.5 | Injury evaluation, scale 0-100% ([3]; 12.5 g/ha): 75% | Injury evaluation, scale 0-100% ([3]; 25 g/ha): 83% | Injury evaluation, scale 0-100% ([3]; 50 g/ha): 85% | Injury evaluation, scale 0-100% ([4]; Acidobacterium HPPD Event 1, 12.5 g/ha): 20% | Injury evaluation, scale 0-100% ([4]; Acidobacterium HPPD Event 1, 25 g/ha): 25% | Injury evaluation, scale 0-100% ([4]; Acidobacterium HPPD Event 1, 50 g/ha): 35% | Injury evaluation, scale 0-100% ([4]; Acidobacterium HPPD Event 2, 12.5 g/ha): 23% | Injury evaluation, scale 0-100% ([4]; Acidobacterium HPPD Event 2, 25 g/ha): 25% | Injury evaluation, scale 0-100% ([4]; Acidobacterium HPPD Event 2, 50 g/ha): 60% | leaf material harmed ([4]; after application of 12.5 g/ha, both events): 20-23% | tolerance of transgenic plants (in words) [4]: not severly injured | Injury evaluation, scale 0-100% ([5]; Algoriphagus HPPD Event 1, 12.5 g/ha): 40% | Injury evaluation, scale 0-100% ([5]; Algoriphagus HPPD Event 1, 25 g/ha): 45% | Injury evaluation, scale 0-100% ([5]; Algoriphagus HPPD Event 1, 50 g/ha): 50% | Injury evaluation, scale 0-100% ([5]; Algoriphagus HPPD Event 2, 12.5 g/ha): 33% | Injury evaluation, scale 0-100% ([5]; Algoriphagus HPPD Event 2, 25 g/ha): 33% | Injury evaluation, scale 0-100% ([5]; Algoriphagus HPPD Event 2, 50 g/ha): 60% | Injury evaluation, scale 0-100% ([6]; Scenedesmus HPPD Event 1, 12.5 g/ha): 13% | Injury evaluation, scale 0-100% ([6]; Scenedesmus HPPD Event 1, 25 g/ha): 18% | Injury evaluation, scale 0-100% ([6]; Scenedesmus HPPD Event 1, 50 g/ha): 65% | Injury evaluation, scale 0-100% ([6]; Scenedesmus HPPD Event 2, 12.5 g/ha): 20% | Injury evaluation, scale 0-100% ([6]; Scenedesmus HPPD Event 2, 25 g/ha): 25% | Injury evaluation, scale 0-100% ([6]; Scenedesmus HPPD Event 2, 50 g/ha): 25% | tolerance of transgenic plants (in words) [6]: outstanding tolerance
